Experimental findings from a compilation of properties of binary mixtures (doi:10.1007/s10953-015-0327-z) are described below.

The data set can be described thus: xn = mol fraction of the nth substance listed. Particulars: 298.15 K, 101 kPa.

Usually speed of sound stands for how fast a sound wave travels through the sample. For the compound `CC[n+]1ccn(C)c1.N#C[S-]` + O, the speed of sound by setting is: (x2 = 0.153) 1848.1 m/s; (x2 = 0.204) 1847.8 m/s.
`CCCC[N+]1(C)CCCC1.O=S(=O)([N-]S(=O)(=O)C(F)(F)F)C(F)(F)F` + O: the speed of sound is, setting by setting: (x2 = 0.0092) 1267.8 m/s; (x2 = 0.0139) 1267.7 m/s; (x2 = 0.0228) 1267.8 m/s; (x2 = 0.0467) 1268.3 m/s; (x2 = 0.2014) 1273.9 m/s.
Take `CCCC[n+]1ccn(C)c1.O=S(=O)([N-]S(=O)(=O)C(F)(F)F)C(F)(F)F` + O: the speed of sound reads like this: (x2 = 0.012) 1226.2 m/s; (x2 = 0.1166) 1228.4 m/s; (x2 = 0.1843) 1230.3 m/s.
With `CCCn1cc[n+](C)c1.O=S(=O)([N-]S(=O)(=O)C(F)(F)F)C(F)(F)F` + O, the speed of sound worked out at 1230.2 m/s (x2 = 0.0016), 1231.7 m/s (x2 = 0.0556) and 1236 m/s (x2 = 0.2358).
